Data reported in patent publication US20260265238A1, “COMPOUNDS AND PHARMACEUTICAL COMPOSITIONS THAT DEGRADE SWI/SNF-RELATED MATRIX-ASSOCIATED ACTIN-DEPENDENT REGULATOR OF CHROMATIN SUBFAMILY A” (Plexium, Inc., priority 2023, published 2026).

Tests used:
[1] = target: T1, SMARCA2-HiBiT HeLa cells (protein which is expressed from the SMARCA2 gene) (Homo sapiens, UniProt P51531); assay: SMARCA2 degradation assay (HiBiT-fusion HeLa cell line, 24 h, luminescence); type: cell-based
T1 construct: protein which is expressed from the SMARCA2 and SMARCA4 genes; host or cells: HeLa (SMARCA2-HiBiT engineered line)
Outline: (§1)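 HiBiT-fusion HeLa lines, 8,000 cells/well, overnight attachment; cpd 10-pt series (typically 10 μM–300 pM), 24 h, 37° C. Lysis with LgBiT + HiBiT substrate, 10 min shaking at RT, luminescence read. DC50 from dose-response fit; % degradation also scored at 1 μM.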

[2] = target: T2, SMARCA4-HiBiT HeLa cells (protein which is expressed from the SMARCA4 gene) (Homo sapiens, UniProt P51532); assay: SMARCA4 degradation assay (HiBiT-fusion HeLa cell line, 24 h, luminescence); type: cell-based
T2 construct: protein which is expressed from the SMARCA2 and SMARCA4 genes; host or cells: HeLa (SMARCA4-HiBiT engineered line)
Outline: as §1

T1 sequence (P51531 whole entry, the tested form may be a part): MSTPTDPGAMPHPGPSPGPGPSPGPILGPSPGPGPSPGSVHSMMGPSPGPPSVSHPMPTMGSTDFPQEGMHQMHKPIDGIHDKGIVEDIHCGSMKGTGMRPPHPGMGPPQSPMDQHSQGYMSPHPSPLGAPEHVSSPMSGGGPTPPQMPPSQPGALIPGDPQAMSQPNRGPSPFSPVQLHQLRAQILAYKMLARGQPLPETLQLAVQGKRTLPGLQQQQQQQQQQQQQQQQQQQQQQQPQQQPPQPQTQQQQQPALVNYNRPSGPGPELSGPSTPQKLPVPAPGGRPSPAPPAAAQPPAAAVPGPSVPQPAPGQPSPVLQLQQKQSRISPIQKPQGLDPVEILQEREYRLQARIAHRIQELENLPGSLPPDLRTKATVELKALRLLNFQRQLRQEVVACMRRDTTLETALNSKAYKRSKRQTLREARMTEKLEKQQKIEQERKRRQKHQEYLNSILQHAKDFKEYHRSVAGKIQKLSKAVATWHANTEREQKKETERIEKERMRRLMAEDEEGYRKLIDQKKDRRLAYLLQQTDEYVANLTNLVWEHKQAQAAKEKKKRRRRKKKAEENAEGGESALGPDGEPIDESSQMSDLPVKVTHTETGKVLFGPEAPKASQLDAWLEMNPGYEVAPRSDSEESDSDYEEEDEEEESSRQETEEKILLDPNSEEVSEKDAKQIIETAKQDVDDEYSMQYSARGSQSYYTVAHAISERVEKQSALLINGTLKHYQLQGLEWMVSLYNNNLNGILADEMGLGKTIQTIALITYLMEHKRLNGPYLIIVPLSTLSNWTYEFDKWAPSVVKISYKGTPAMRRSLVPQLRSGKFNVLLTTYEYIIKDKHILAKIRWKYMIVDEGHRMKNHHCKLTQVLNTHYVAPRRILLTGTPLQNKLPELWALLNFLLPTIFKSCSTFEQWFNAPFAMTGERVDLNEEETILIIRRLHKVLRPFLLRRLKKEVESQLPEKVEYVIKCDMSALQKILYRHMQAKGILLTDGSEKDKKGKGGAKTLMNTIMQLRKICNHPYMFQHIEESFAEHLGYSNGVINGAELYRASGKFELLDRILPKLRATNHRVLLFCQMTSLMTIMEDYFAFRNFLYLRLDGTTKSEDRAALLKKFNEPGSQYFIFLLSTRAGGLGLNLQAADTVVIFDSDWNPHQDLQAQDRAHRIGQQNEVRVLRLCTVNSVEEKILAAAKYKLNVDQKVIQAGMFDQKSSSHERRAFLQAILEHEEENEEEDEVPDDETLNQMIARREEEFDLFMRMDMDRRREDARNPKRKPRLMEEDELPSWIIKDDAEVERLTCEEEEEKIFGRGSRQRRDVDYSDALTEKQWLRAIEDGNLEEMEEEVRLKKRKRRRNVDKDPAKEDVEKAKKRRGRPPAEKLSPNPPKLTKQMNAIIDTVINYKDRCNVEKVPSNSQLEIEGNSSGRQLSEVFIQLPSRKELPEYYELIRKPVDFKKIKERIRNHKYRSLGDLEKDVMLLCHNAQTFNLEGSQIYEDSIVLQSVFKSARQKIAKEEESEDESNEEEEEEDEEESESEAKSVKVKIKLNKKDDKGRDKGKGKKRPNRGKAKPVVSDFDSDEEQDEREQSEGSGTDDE
T2 sequence (P51532 whole entry, the tested form may be a part): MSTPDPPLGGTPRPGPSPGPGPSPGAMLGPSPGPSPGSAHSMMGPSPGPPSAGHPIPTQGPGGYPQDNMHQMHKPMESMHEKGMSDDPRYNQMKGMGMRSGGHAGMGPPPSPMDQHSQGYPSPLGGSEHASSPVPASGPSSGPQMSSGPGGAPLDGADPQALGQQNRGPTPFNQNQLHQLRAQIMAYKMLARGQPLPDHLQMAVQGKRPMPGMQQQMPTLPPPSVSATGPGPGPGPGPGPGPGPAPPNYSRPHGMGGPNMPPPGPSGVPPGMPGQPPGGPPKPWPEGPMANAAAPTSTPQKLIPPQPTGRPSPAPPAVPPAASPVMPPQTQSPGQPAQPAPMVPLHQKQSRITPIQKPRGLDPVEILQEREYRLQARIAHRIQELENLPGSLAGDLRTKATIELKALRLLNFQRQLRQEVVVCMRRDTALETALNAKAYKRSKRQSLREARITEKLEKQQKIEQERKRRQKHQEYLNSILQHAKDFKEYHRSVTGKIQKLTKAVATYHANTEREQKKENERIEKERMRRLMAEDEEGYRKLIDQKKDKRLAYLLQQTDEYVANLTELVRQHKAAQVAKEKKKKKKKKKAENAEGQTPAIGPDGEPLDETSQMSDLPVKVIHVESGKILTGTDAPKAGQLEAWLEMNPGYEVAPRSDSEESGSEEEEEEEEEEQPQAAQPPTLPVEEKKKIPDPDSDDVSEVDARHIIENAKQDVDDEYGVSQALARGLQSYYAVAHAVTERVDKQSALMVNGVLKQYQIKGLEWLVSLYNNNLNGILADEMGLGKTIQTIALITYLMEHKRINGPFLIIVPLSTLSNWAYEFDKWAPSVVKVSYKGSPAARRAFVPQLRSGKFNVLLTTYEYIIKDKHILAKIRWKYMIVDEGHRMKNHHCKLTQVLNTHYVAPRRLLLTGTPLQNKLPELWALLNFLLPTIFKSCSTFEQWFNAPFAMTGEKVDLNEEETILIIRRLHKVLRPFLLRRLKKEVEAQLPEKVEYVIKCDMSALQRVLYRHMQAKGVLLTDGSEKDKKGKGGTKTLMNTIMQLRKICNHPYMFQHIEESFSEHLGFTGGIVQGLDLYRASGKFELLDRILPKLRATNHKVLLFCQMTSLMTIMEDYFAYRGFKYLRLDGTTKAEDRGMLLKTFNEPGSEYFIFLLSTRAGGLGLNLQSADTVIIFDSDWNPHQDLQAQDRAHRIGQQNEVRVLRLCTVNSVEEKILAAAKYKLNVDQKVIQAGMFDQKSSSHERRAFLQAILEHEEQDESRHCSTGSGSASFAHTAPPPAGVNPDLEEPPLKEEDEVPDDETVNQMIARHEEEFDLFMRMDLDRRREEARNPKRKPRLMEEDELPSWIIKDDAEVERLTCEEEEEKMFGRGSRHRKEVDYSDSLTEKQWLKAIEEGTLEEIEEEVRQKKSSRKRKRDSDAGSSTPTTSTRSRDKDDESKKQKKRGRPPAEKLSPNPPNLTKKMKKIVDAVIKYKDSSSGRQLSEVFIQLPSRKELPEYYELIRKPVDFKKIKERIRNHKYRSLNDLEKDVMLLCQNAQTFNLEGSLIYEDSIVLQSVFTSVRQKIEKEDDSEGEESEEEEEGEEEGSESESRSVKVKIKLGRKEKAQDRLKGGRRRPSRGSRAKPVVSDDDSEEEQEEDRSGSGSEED

NCC#Cc1nccc(N2C3CC2CN(c2cc(-c4ccccc4O)nnc2N)C3)n1 [Compound P-91, 2-(6-amino-5-(6-(2-(3-aminoprop-1-yn-1-yl)pyrimidin-4-yl)-3,6-diazabicyclo[3.1.1]heptan-3-yl)pyridazin-3-yl)phenol]
DC50 [1]: 0.5 to 5 µM
SMARCA2 % Degradation @ 1 μM ([1]; @ 1 μM): + (+=<30%)
DC50 [2]: 0.5 to 5 µM
inhibition at 1 µM ([2]; @ 1 μM): < 30%

C[C@H]1CCN(c2cc(-c3ccccc3O)nnc2N)CCN1c1ccnc(C#CCNC(=O)c2cnc3ccccc3n2)n1 [Compound P-101, (S)-N-(3-(4-(4-(3-amino-6-(2-hydroxyphenyl)pyridazin-4-yl)-7-methyl-1,4-diazepan-1-yl)pyrimidin-2-y1)prop-2-yn-1-yl)quinoxaline-2-carboxamide]
DC50 [1]: < 0.05 µM
SMARCA2 % Degradation @ 1 μM ([1]; @ 1 μM): +++ (+++=>70%)
DC50 [2]: < 0.05 µM
inhibition at 1 µM ([2]; @ 1 μM): > 70%

CC1CC(C)N1CC#Cc1cc(N2CCN(c3cc(-c4ccccc4O)nnc3N)CC[C@H]2C)ccn1 (stereo partly drawn) [Compound P-418, 0-{5-[(R)-4-{2-[3-(2,4-dimethyl-1-azetidinyl)-1-propynyl]-4-pyridy1}-5-methyl-1,4-diazepan-1-yl]-6-amino-3-pyridazinyl}phenol]
DC50 [1]: < 0.05 µM
SMARCA2 % Degradation @ 1 μM ([1]; 1 μM): +++ (+++=>70%)
DC50 [2]: < 0.05 µM
inhibition at 1 µM ([2]; 1 μM): 30 to 70%

CC1CCN(c2cc(-c3ccccc3O)nnc2N)CCN1c1ccnc(C#CCN)n1 (stereo not shown) [Compound P-85, 2-(6-amino-5-(4-(2-(3-aminoprop-1-yn-1-yl)pyrimidin-4-yl)-5-methyl-1,4-diazepan-1-yl)pyridazin-3-yl)phenol]
DC50 [1]: 0.5 to 5 µM
SMARCA2 % Degradation @ 1 μM ([1]; @ 1 μM): + (+=<30%)
DC50 [2]: 0.5 to 5 µM
inhibition at 1 µM ([2]; @ 1 μM): < 30%

C[C@@H]1CCN(c2cc(-c3ccccc3O)nnc2N)CCN1c1ccnc(C#CCN(C)CCF)n1 [Compound P-154, o-{5-[(R)-4-(2-{3-[(2-fluoroethyl)-N-methylamino]-1-propynyl}-4-pyrimidinyl)-5-methyl-1,4-diazepan-1-yl]-6-amino-3-pyridaziny1} phenol]
DC50 [1]: 0.05 to 0.5 µM
SMARCA2 % Degradation @ 1 μM ([1]; @ 1 μM): ++ (++=30-70%)
DC50 [2]: 0.05 to 0.5 µM
inhibition at 1 µM ([2]; @ 1 μM): < 30%

C[C@@H]1CCN(c2cc(-c3ccccc3O)nnc2N)CCN1c1ccnc(C#CCN2CCC(F)(F)C2)n1 [Compound P-243, o-{5-[(R)-4-{2-[3-(3,3-difluoro-1-pyrrolidinyl)-1-propynyl]-4-pyrimidinyl}-5-methyl-1,4-diazepan-1-yl]-6-amino-3-pyridazinyl} phenol]
DC50 [1]: 0.05 to 0.5 µM
SMARCA2 % Degradation @ 1 μM ([1]; @ 1 μM): ++ (++=30-70%)
DC50 [2]: 0.05 to 0.5 µM
inhibition at 1 µM ([2]; @ 1 μM): 30 to 70%

C[C@@H]1CCN(c2cc(-c3ccccc3O)nnc2N)CCN1c1ccnc(C#CCN2CC[C@H]2CF)n1 [Compound P-263, o-{5-[(R)-4-(2-{3-[(S)-2-(fluoromethyl)-1-azetidinyl]-1-propynyl}-4-pyrimidinyl)-5-methyl-1,4-diazepan-1-yl]-6-amino-3-pyridazinyl}phenol]
DC50 [1]: 0.05 to 0.5 µM
SMARCA2 % Degradation @ 1 μM ([1]; @ 1 μM): ++ (++=30-70%)
DC50 [2]: < 0.05 µM
inhibition at 1 µM ([2]; @ 1 μM): < 30%

Nc1nnc(-c2ccccc2O)cc1N1CC2CCN(c3ccnc(C#CCNC(=O)c4cc5ncccn5n4)n3)C2C1 (stereo not shown) [Compound P-36, N-(3-(4-(5-(3-amino-6-(2-hydroxyphenyl)pyridazin-4-yl)hexahydropyrrolo[3,4-b]pyrrol-1(2H)-yl)pyrimidin-2-yl)prop-2-yn-1-yl)pyrazolo[1,5-a]pyrimidine-2-carboxamide]
DC50 [1]: 0.05 to 0.5 µM
SMARCA2 % Degradation @ 1 μM ([1]; @ 1 μM): +++ (+++=>70%)
DC50 [2]: 0.05 to 0.5 µM
inhibition at 1 µM ([2]; @ 1 μM): > 70%

CC(C)(C)OC(=O)NCC#Cc1nccc(N2C3CCC2CN(c2cc(-c4ccccc4O)nnc2N)CC3)n1 (stereo not shown) [Compound P-303, 4-(9-{2-[3-(tert-butoxycarbonylamino)-1-propynyl]-4-pyrimidinyl}-3,9-diazabicyclo[4.2.1]non-3-yl)-6-(o-hydroxyphenyl)-3-pyridazinamine]
DC50 [1]: < 0.05 µM
SMARCA2 % Degradation @ 1 μM ([1]; @ 1 μM): ++ (++=30-70%)
DC50 [2]: < 0.05 µM
inhibition at 1 µM ([2]; @ 1 μM): 30 to 70%

CC1CCC(C)N1CC#Cc1nccc(N2CCN(c3cc(-c4ccccc4O)nnc3N)CC[C@H]2C)n1 (stereo partly drawn) [Compound P-246, o-{5-[(R)-4-{2-[3-(2,5-dimethyl-1-pyrrolidinyl)-1-propynyl]-4-pyrimidinyl}-5-methyl-1,4-diazepan-1-yl]-6-amino-3-pyridazinyl}phenol]
DC50 [1]: < 0.05 µM
SMARCA2 % Degradation @ 1 μM ([1]; @ 1 μM): ++ (++=30-70%)
DC50 [2]: < 0.05 µM
inhibition at 1 µM ([2]; @ 1 μM): 30 to 70%

COC[C@H](C)NCC#Cc1nccc(N2CCCN(c3cc(-c4ccccc4O)nnc3N)CC2)n1 [Compound P-276, 0-{5-[4-(2-{3-[(S)-2-methoxy-1-methylethylamino]-1-propynyl}-4-pyrimidinyl)-1,4-diazepan-1-yl]-6-amino-3-pyridazinyl}phenol]
DC50 [1]: 0.05 to 0.5 µM
SMARCA2 % Degradation @ 1 μM ([1]; @ 1 μM): ++ (++=30-70%)
DC50 [2]: 0.05 to 0.5 µM
inhibition at 1 µM ([2]; @ 1 μM): 30 to 70%

CN(C)CC#Cc1nccc(N2C3CCC2CN(c2cc(-c4ccccc4O)nnc2N)CC3)n1 (stereo not shown) [Compound P-157, o-[6-amino-5-(9-{2-[3-(dimethylamino)-1-propynyl]-4-pyrimidinyl}-3,9-diazabicyclo[4.2.1]non-3-yl)-3-pyridazinyl]phenol]
DC50 [1]: < 0.05 µM
SMARCA2 % Degradation @ 1 μM ([1]; @ 1 μM): ++ (++=30-70%)
DC50 [2]: 0.05 to 0.5 µM
inhibition at 1 µM ([2]; @ 1 μM): 30 to 70%

C[C@@H]1CCN(c2cc(-c3ccccc3O)nnc2N)CCN1c1ccnc(C#CCN2CC(F)(F)C2)c1 [Compound P-421, 0-{5-[(R)-4-{2-[3-(3,3-difluoro-1-azetidinyl)-1-propynyl]-4-pyridyl}-5-methyl-1,4-diazepan-1-yl]-6-amino-3-pyridazinyl}phenol]
DC50 [1]: 0.05 to 0.5 µM
SMARCA2 % Degradation @ 1 μM ([1]; 1 μM): ++ (++=30-70%)
DC50 [2]: < 0.05 µM
inhibition at 1 µM ([2]; 1 μM): 30 to 70%

C[C@@H]1CCN(c2cc(-c3ccccc3O)nnc2N)CCN1c1nc(C#CCn2cncn2)ncc1F [Compound P-214, o-{5-[(R)-4-{5-fluoro-2-[3-(1H-1,2,4-triazol-1-yl)-1-propynyl]-4-pyrimidinyl}-5-methyl-1,4-diazepan-1-yl]-6-amino-3-pyridazinyl}phenol]
DC50 [1]: 0.05 to 0.5 µM
SMARCA2 % Degradation @ 1 μM ([1]; @ 1 μM): ++ (++=30-70%)
DC50 [2]: 0.05 to 0.5 µM
inhibition at 1 µM ([2]; @ 1 μM): 30 to 70%

Nc1nnc(-c2ccccc2O)cc1N1CC2CCC(C1)N2c1ccnc(C#CCNC(=O)c2cccnc2)n1 [Compound P-241, N-[3-(4-{3-[3-amino-6-(o-hydroxyphenyl)-4-pyridazinyl]-3,8-diazabicyclo[3.2.1]oct-8-yl}-2-pyrimidinyl)-2-propynyl]nicotinamide]
DC50 [1]: 0.05 to 0.5 µM
SMARCA2 % Degradation @ 1 μM ([1]; @ 1 μM): ++ (++=30-70%)
DC50 [2]: 0.05 to 0.5 µM
inhibition at 1 µM ([2]; @ 1 μM): 30 to 70%

C[C@@H]1CCN(c2cc(-c3ccccc3O)nnc2N)CCN1c1ccnc(C#CCN2CC(F)(F)[C@@H]2C)n1 [Compound P-270, 0-{5-[(R)-4-(2-{3-[(S)-3,3-difluoro-2-methyl-1-azetidinyl]-1-propyny1}-4-pyrimidinyl)-5-methyl-1,4-diazepan-1-yl]-6-amino-3-pyridaziny1} phenol]
DC50 [1]: 0.05 to 0.5 µM
SMARCA2 % Degradation @ 1 μM ([1]; @ 1 μM): ++ (++=30-70%)
DC50 [2]: 0.05 to 0.5 µM
inhibition at 1 µM ([2]; @ 1 μM): 30 to 70%

Cn1ccc(NCC#Cc2nccc(N3CCCN(c4cc(-c5ccccc5O)nnc4N)CC3)n2)n1 [Compound P-21, 2-(6-amino-5-(4-(2-(3-((1-methyl-1H-pyrazol-3-yl)amino)prop-1-yn-1-yl)pyrimidin-4-yl)-1,4-diazepan-1-yl)pyridazin-3-yl)phenol]
DC50 [1]: 0.05 to 0.5 µM
SMARCA2 % Degradation @ 1 μM ([1]; @ 1 μM): ++ (++=30-70%)
DC50 [2]: 0.05 to 0.5 µM
inhibition at 1 µM ([2]; @ 1 μM): 30 to 70%

Nc1nnc(-c2ccccc2O)cc1OC1CC2CN(c3ccnc(C#CCN4CCC4)n3)CC2C1 (stereo not shown) [Compound P-197, o-[6-amino-5-(3-(2-[3-(1-azetidinyl)-1-propynyl]-4-pyrimidinyl}-3-azabicyclo[3.3.0]oct-7-yloxy)-3-pyridazinyl]phenol]
DC50 [1]: 0.05 to 0.5 µM
SMARCA2 % Degradation @ 1 μM ([1]; @ 1 μM): ++ (++=30-70%)
DC50 [2]: 0.5 to 5 µM
inhibition at 1 µM ([2]; @ 1 μM): 30 to 70%

C[C@@H]1CN(CC#Cc2nccc(N3CCCN(c4cc(-c5ccccc5O)nnc4N)CC3)n2)C[C@@H](C)O1 [Compound P-356, 0-{5-[4-(2-{3-[(2R,6R)-2,6-dimethyl-4-morpholinyl]-1-propynyl}-4-pyrimidinyl)-1,4-diazepan-1-yl]-6-amino-3-pyridazinyl}phenol]
DC50 [1]: 0.5 to 5 µM
SMARCA2 % Degradation @ 1 μM ([1]; @ 1 μM): ++ (++=30-70%)
DC50 [2]: 0.5 to 5 µM
inhibition at 1 µM ([2]; @ 1 μM): < 30%

Nc1nnc(-c2ccccc2O)cc1N1CCCN(c2ccnc(C#CCN3CCC3)n2)CC1 [Compound P-308, 0-[6-amino-5-(4-{2-[3-(1-azetidinyl)-1-propynyl]-4-pyrimidinyl}-1,4-diazepan-1-yl)-3-pyridazinyl]phenol]
DC50 [1]: 0.5 to 5 µM
SMARCA2 % Degradation @ 1 μM ([1]; @ 1 μM): ++ (++=30-70%)
DC50 [2]: 0.5 to 5 µM
inhibition at 1 µM ([2]; @ 1 μM): 30 to 70%

Nc1nnc(-c2ccccc2O)cc1N1CCN(c2ccnc(C#CCNC(=O)c3cccnc3)n2)CC1 [Compound P-4, N-[3-(4-{4-[3-amino-6-(2-hydroxyphenyl)pyridazin-4-yl]piperazin-1-yl}pyrimidin-2-yl)prop-2-yn-1-yl]pyridine-3-carboxamide]
DC50 [1]: 0.05 to 0.5 µM
SMARCA2 % Degradation @ 1 μM ([1]; @ 1 μM): ++ (++=30-70%)
DC50 [2]: 0.05 to 0.5 µM
inhibition at 1 µM ([2]; @ 1 μM): < 30%

C[C@@H]1CCN(c2cc(-c3ccccc3O)nnc2N)CCN1c1nc(C#CCNC(=O)OC(C)(C)C)ncc1F [Compound P-248]
DC50 [1]: 0.5 to 5 µM
SMARCA2 % Degradation @ 1 μM ([1]; @ 1 μM): ++ (++=30-70%)
DC50 [2]: 0.5 to 5 µM
inhibition at 1 µM ([2]; @ 1 μM): < 30%
